IC50 data for 16 molecules are collected here from patent publication US20230022157A1 (Achillion Pharmaceuticals, Inc., priority 2018, published 2023).

As usually defined, the IC50 is the concentration that gives 50% inhibition.

T1 sequence (P00746 26-253): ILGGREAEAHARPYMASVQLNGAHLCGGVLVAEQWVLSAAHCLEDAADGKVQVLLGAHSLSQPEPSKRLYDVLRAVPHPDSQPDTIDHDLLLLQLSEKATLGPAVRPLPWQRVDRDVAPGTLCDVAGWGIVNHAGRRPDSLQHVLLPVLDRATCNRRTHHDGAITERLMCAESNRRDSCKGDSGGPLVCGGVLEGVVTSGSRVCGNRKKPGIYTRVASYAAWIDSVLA

One assay concerns the target T1, Human Factor D (Homo sapiens, UniProt P00746).
T1 construct: purified from human serum; purchased Complement Technology, Inc; host or cells: human serum (natural protein, not recombinant)
The assay can be described thus: Human Factor D Assay. It counts as biochemical. Particulars: Human Factor D 80 nM, substrate Z-L-Lys-SBzl, assay of Example 3; read-out: IC50 (Stars). In outline: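 Serum-purified human factor D (80 nM final) preincubated 5 min at room temperature with test compound in 50 mM Tris, 1M NaCl, pH 7.5. Z-L-Lys-SBzl substrate and DTNB then added, each at 100 μM final. IC50 from nonlinear regression of reaction rate against compound concentration.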
As to `CC(=O)c1nn(CC(=O)N2[C@H](C(=O)N[C@H](C)CC(C)C)C[C@@]3(C)C[C@@H]23)c2ccc(-c3cnc(C)nc3)cc12` [Compound 18, (1R,3S,5R)-2-(2-(3-Acetyl-5-(2-methylpyrimidin-5-yl)-1H-indazol-1-yl)acetyl)-5-methyl-N—((R)-4-methylpentan-2-yl)-2-azabicyclo[3.1.0]hexane-3-carboxamide], the IC50 is under 1 µM.

Staying with this assay, now noted: Human Factor D 80 nM, substrate Z-L-Lys-SBzl; Table 2; read-out: IC50 (Stars).
In the case of `CC(=O)c1nn(CC(=O)N2[C@H](C(=O)Nc3nc(C(F)(F)F)ccc3C)C[C@@]3(C)C[C@@H]23)c2c(C)cc(-c3cnc4c(O)c(C)nn4c3)cc12` [Compound 232, (1R,3S,5R)-2-(2-(3-acetyl-5-(3-hydroxy-2-methylpyrazolo[1,5-a]pyrimidin-6-yl)-7-methyl-1H-indazol-1-yl)acetyl)-5-methyl-N-(3-methyl-6-(trifluoromethyl)pyridin-2-yl)-2-azabicyclo[3.1.0]hexane-3-carboxamide], the IC50 is under 1 µM.

As to `CC(=O)c1nn(CC(=O)N2[C@H]3CC[C@H](C3)[C@H]2C(=O)Nc2nc(C(F)(F)F)ccc2C)c2c(C)cc(-c3cnc(C(C)O)nc3)cc12` (stereo partly drawn) [Compound 171, (1S,3S,4R)-2-(2-(3-acetyl-5-(2-(1-hydroxyethyl)pyrimidin-5-yl)-7-methyl-1H-indazol-1-yl)acetyl)-N-(3-methyl-6-(trifluoromethyl)pyridin-2-yl)-2-azabicyclo[2.2.1]heptane-3-carboxamide], the IC50 was under 1 µM.

For the molecule `CC(=O)c1cn(CC(=O)N2[C@H](C(=O)Nc3cncc(Br)n3)C[C@@]3(C)C[C@@H]23)c2c(C)cc(-c3cnc(CO)nc3)cc12` [Compound 77, (1R,3S,5R)-2-(2-(3-acetyl-5-(2-(hydroxymethyl)pyrimidin-5-yl)-7-methyl-1H-indol-1-yl)acetyl)-N-(6-bromopyrazin-2-yl)-5-methyl-2-azabicyclo[3.1.0]hexane-3-carboxamide], the IC50 was under 1 µM.

In the case of `CC(=O)c1nn(CC(=O)N2C[C@H]3C[C@H]3[C@H]2C(=O)Nc2nc(Br)ccc2Cl)c2c(C)cc(-c3cnc(C(C)O)nc3)cc12` (stereo partly shown) [Compound 166], the IC50 was under 1 µM.

In the case of `COc1cc(Br)nc(NC(=O)[C@@H]2C[C@@]3(C)C[C@H]3N2C(=O)Cn2nc(C(N)=O)c3cc(-c4cnc(C)nc4)nc(C)c32)c1` [Compound 113, 1-(2-((1R,3S,5R)-3-((6-bromo-4-methoxypyridin-2-yl)carbamoyl)-5-methyl-2-azabicyclo[3.1.0]hexan-2-yl)-2-oxoethyl)-7-methyl-5-(2-methylpyrimidin-5-yl)-1H-pyrazolo[3,4-c]pyridine-3-carboxamide], the IC50 was under 1 µM.

Take `CC(=O)c1cn(CC(=O)N2[C@H](C(=O)Nc3nc(C(F)(F)F)ccc3C)C[C@@]3(C)C[C@@H]23)c2c(C)cc(-c3cnc(CF)nc3)cc12` [Compound 220, (1R,3S,5R)-2-(2-(3-acetyl-5-(2-(fluoromethyl)pyrimidin-5-yl)-7-methyl-1H-indol-1-yl)acetyl)-5-methyl-N-(3-methyl-6-(trifluoromethyl)pyridin-2-yl)-2-azabicyclo[3.1.0]hexane-3-carboxamide]: the IC50 was under 1 µM.

Turning to `CC(=O)c1cn(CC(=O)N2[C@H](C(=O)Nc3nc(Br)c(F)cc3C)C[C@@]3(C)C[C@@H]23)c2c(C)cc(-c3cnc(CF)nc3)cc12` [Compound 217, (1R,3S,5R)-2-(2-(3-acetyl-5-(2-(fluoromethyl)pyrimidin-5-yl)-7-methyl-1H-indol-1-yl)acetyl)-N-(6-bromo-5-fluoro-3-methylpyridin-2-yl)-5-methyl-2-azabicyclo[3.1.0]hexane-3-carboxamide], the IC50 is under 1 µM.

For `CC(=O)c1nn(CC(=O)N2[C@H](C(=O)NC(C)Cc3ccoc3)C[C@@]3(C)C[C@@H]23)c2c(C)cc(-c3cnc(C)nc3)cc12` (stereo partly drawn) [Compound 181, (1R,3S,5R)-2-{2-[3-acetyl-7-methyl-5-(2-methylpyrimidin-5-yl)indazol-1-yl]acetyl}-N-[1-(furan-3-yl)propan-2-yl]-5-methyl-2-azabicyclo[3.1.0]hexane-3-carboxamide], the IC50 was under 1 µM.

For the molecule `CC(=O)c1nn(CC(=O)N2[C@H](C(=O)NCCn3cccn3)C[C@@]3(C)C[C@@H]23)c2c(C)cc(-c3cnc(C)nc3)cc12` [Compound 102, (1R,3S,5R)-2-{2-[3-acetyl-7-methyl-5-(2-methylpyrimidin-5-yl)indazol-1-yl]acetyl}-5-methyl-N-[2-(pyrazol-1-yl)ethyl]-2-azabicyclo[3.1.0]hexane-3-carboxamide], the IC50 is under 1 µM.

As for `CC(=O)c1cn(CC(=O)N2[C@H](C(=O)Nc3cc(F)cc(Br)n3)C[C@@]3(C)C[C@@H]23)c2c(C)cc(-c3cnc(C)nc3)cc12` [Compound 192, (1R,3S,5R)-2-(2-(3-acetyl-7-methyl-5-(2-methylpyrimidin-5-yl)-1H-indol-1-yl)acetyl)-N-(6-bromo-4-fluoropyridin-2-yl)-5-methyl-2-azabicyclo[3.1.0]hexane-3-carboxamide], the IC50 is under 1 µM.

In the case of `CC(=O)c1nn(CC(=O)N2[C@H](C(=O)Nc3nc(C(C)(F)F)ccc3C)C[C@@]3(C)C[C@@H]23)c2c(C)cc(-c3cnc(C)nc3)cc12` [Compound 130, (1R,3S,5R)-2-(2-(3-Acetyl-7-methyl-5-(2-methylpyrimidin-5-yl)-1H-indazol-1-yl)acetyl)-N-(6-(1,1-difluoroethyl)-3-methylpyridin-2-yl)-5-methyl-2-azabicyclo[3.1.0]hexane-3-carboxamide], the IC50 is under 1 µM.

For the molecule `CC(=O)c1cn(CC(=O)N2[C@H](C(=O)Nc3cncc(Br)n3)C[C@@]3(C)C[C@@H]23)c2c(C)cc(-c3cnc4cc(C)nn4c3)cc12` [Compound 210, (1R,3S,5R)-2-(2-(3-acetyl-7-methyl-5-(2-methylpyrazolo[1,5-a]pyrimidin-6-yl)-1H-indol-1-yl)acetyl)-N-(6-bromopyrazin-2-yl)-5-methyl-2-azabicyclo[3.1.0]hexane-3-carboxamide], the IC50 is under 1 µM.

For the molecule `CC(=O)c1cn(CC(=O)N2[C@H](C(=O)Nc3nc(Br)c(F)cc3C)C[C@@]3(C)C[C@@H]23)c2c(C3CC3)cc(-c3cnc(C)nc3)cc12` [Compound 162], the IC50 was under 1 µM.

As for `CC(=O)c1cn(CC(=O)N2[C@H](C(=O)Nc3nc(C(F)(F)F)ccc3C)C[C@@]3(C)C[C@@H]23)c2c(CF)cc(-c3cnc(C)nc3)cc12` [Compound 239, (1R,3S,5R)-2-(2-(3-acetyl-7-(fluoromethyl)-5-(2-methylpyrimidin-5-yl)-1H-indol-1-yl)acetyl)-5-methyl-N-(3-methyl-6-(trifluoromethyl)pyridin-2-yl)-2-azabicyclo[3.1.0]hexane-3-carboxamide], the IC50 is under 1 µM.

With `CC(=O)c1cn(CC(=O)N2[C@H](C(=O)Nc3nc(C(F)(F)F)ccc3C)C[C@@]3(C)C[C@@H]23)c2c(C)nc(-c3cnc(C)nc3)cc12` [Compound 200, (1R,3S,5R)-2-{2-[3-acetyl-7-methyl-5-(2-methylpyrimidin-5-yl)pyrrolo[2,3-c]pyridin-1-yl]acetyl}-5-methyl-N-[3-methyl-6-(trifluoromethyl)pyridin-2-yl]-2-azabicyclo[3.1.0]hexane-3-carboxamide], the IC50 is under 1 µM.
